Experimental data: ChEMBL document CHEMBL6114967, “Design and synthesis of novel sulfur-substituted triptolide with the ability to induce autophagy through inhibition of SRSF1 expression” (Eur J Med Chem, 2025)
pIC50: −log10 of the molar value. Calls of active or inactive are those of the source. The calls are words filed in the database; no cut-off is given here.

Key:
HGC-27 [1] = assay: Induction of cell cycle arrest in human HGC-27 cells assessed as increase in S phase ratio at 0.5 to 2 uM incubated for 24 hrs by staining based flow cytometric analysis ( Rvb = 50.19%); format: functional; conditions: dose 0.5-2 µM
AGS [2] = assay: Induction of cell cycle arrest in human AGS cells assessed as increase in S phase ratio at 0.5 to 2 uM incubated for 24 hrs by staining based flow cytometric analysis ( Rvb = 32.86%); format: functional; conditions: dose 0.5-2 µM
AGS [3] = assay: Downregulation of Bcl-xl protein level in human AGS cells at 0.5 to 2 uM by Western blotting analysis; format: functional, cell-based; conditions: dose 0.5-2 µM
SGC-7901 = assay: Antiproliferative activity against human SGC-7901 cells assessed as inhibition of cell proliferation incubated for 72 hrs by MTT assay; format: functional, cell-based; conditions: SGC-7901, 72 h
HGC-27 [4] = assay: Induction of autophagy in human HGC-27 cells assessed as upregulation of ATG5 protein level at 0.5 to 2 uM incubated for 48 hrs by Western blotting analysis; format: functional, cell-based; conditions: dose 0.5-2 µM
HGC-27 [5] = assay: Downregulation of RNA splicing pathway in human HGC-27 cells at 2 uM incubated for 24 hrs by KEGG enrichment analysis; format: functional, cell-based
HGC-27 [6] = assay: Induction of apoptosis in human HGC-27 cells assessed as early apoptotic cells at 1 uM incubated for 48 hrs by annexin V-FITC and PI staining based flow cytometry analysis (reference value: 3.13%); format: functional
AGS [7] = assay: Induction of apoptosis in human AGS cells assessed as early apoptotic cells at 1 uM incubated for 48 hrs by annexin V-FITC and PI staining based flow cytometry analysis (reference value: 4.44%); format: functional
HGC-27 [8] = assay: Induction of apoptosis in human HGC-27 cells assessed as increase in cleaved caspase-3 expression at 0.5 to 2 uM incubated overnight by Western blotting analysis; format: functional, cell-based; conditions: dose 0.5-2 µM
U-251 = assay: Antiproliferative activity against human U-251 cells assessed as inhibition of cell proliferation incubated for 72 hrs by MTT assay; format: functional, cell-based; conditions: U-251, 72 h
HGC-27 [9] = assay: Downregulation of Bcl-xl expression in human HGC-27 cells at 0.5 to 2 uM incubated overnight by Western blotting analysis; format: functional, cell-based; conditions: dose 0.5-2 µM
AGS [10] = assay: Induction of apoptosis in human AGS cells assessed as late apoptotic cells at 1 uM incubated for 48 hrs by annexin V-FITC and PI staining based flow cytometry analysis (reference value: 3.15%); format: functional
HGC-27 [11] = assay: Induction of autophagy in human HGC-27 cells assessed as upregulation of LC3 I protein level at 0.5 to 2 uM incubated for 48 hrs by Western blotting analysis; format: functional, cell-based; conditions: dose 0.5-2 µM
HCT-116 = assay: Antiproliferative activity against human HCT-116 cells assessed as inhibition of cell proliferation incubated for 72 hrs by MTT assay; format: functional, cell-based; conditions: HCT-116, 72 h
HGC-27 [12] = assay: Induction of apoptosis in human HGC-27 cells assessed as late apoptotic cells at 2 uM incubated for 48 hrs by annexin V-FITC and PI staining based flow cytometry analysis (reference value: 5.02%); format: functional
[13] = Acute toxicity in male ICR mouse assessed as abnormal hepatocyte morphology at 1 g/Kg, ip measured after 7 days by H and E staining based light microscopic analysis; format: organism-based; conditions: in vivo, 1000 mg/kg, 168 h, time 7 day
HGC-27 [14] = assay: Antitumor activity against human HGC-27 cells xenografted in male BALB/c nude mouse assessed as tumor growth inhibition at 25 mg/kg, ip administered every day for 15 days relative to control; format: functional; conditions: HGC-27, 360 h, time 15 day, read-out: TGI
HGC-27 [15] = assay: Downregulation of RNA splicing pathway in human HGC-27 cells at 2 uM incubated for 24 hrs by GESA; format: functional, cell-based
HGC-27 [16] = assay: Upregulation of BECN1 mRNA expression in human HGC-27 cells at 2 uM incubated for 24 hrs; format: functional, cell-based
AGS [17] = assay: Downregulation of SRSF1 mRNA expression in human AGS cells incubated for 24 hrs by SYBR green dye based RT-qPCR analysis; format: functional, cell-based; conditions: dose 0.5-2 µM
AGS [18] = assay: Antiproliferative activity against human AGS cells assessed as inhibition of cell proliferation incubated for 72 hrs by MTT assay; format: functional, cell-based
HGC-27 [19] = assay: Induction of apoptosis in human HGC-27 cells assessed as early apoptotic cells at 2 uM incubated for 48 hrs by annexin V-FITC and PI staining based flow cytometry analysis (reference value: 3.13%); format: functional
HGC-27 [20] = assay: Induction of cell cycle arrest in human HGC-27 cells assessed as reduction in CyclinE2 expression at 0.5 to 2 uM by Western blotting analysis; format: functional, cell-based; conditions: dose 0.5-2 µM
HGC-27 [21] = assay: Upregulation of MAP1LC3B2 mRNA expression in human HGC-27 cells at 2 uM incubated for 24 hrs; format: functional, cell-based
HGC-27 [22] = assay: Antiproliferative activity against human HGC-27 cells assessed as inhibition of cell proliferation incubated for 72 hrs by MTT assay; format: functional, cell-based; conditions: HGC-27, 72 h
AGS [23] = assay: Induction of apoptosis in human AGS cells assessed as viable cells at 1 uM incubated for 48 hrs by annexin V-FITC and PI staining based flow cytometry analysis (reference value: 92.0%); format: functional; conditions: read-out: Activity
AGS [24] = assay: Induction of autophagy in human AGS cells assessed as upregulation of ATG5 protein level at 0.5 to 2 uM incubated for 48 hrs by Western blotting analysis; format: functional, cell-based; conditions: dose 0.5-2 µM
AGS [25] = assay: Induction of apoptosis in human AGS cells assessed as viable cells at 0.5 uM incubated for 48 hrs by annexin V-FITC and PI staining based flow cytometry analysis (reference value: 92.0%); format: functional; conditions: read-out: Activity
BGC-823 = assay: Antiproliferative activity against human BGC-823 cells assessed as inhibition of cell proliferation incubated for 72 hrs by MTT assay; format: functional, cell-based; conditions: BGC-823, 72 h
HGC-27 [26] = assay: Induction of apoptosis in human HGC-27 cells assessed as increase in cleaved PARP expression at 0.5 to 2 uM incubated overnight by Western blotting analysis; format: functional, cell-based; conditions: dose 0.5-2 µM
AGS [27] = assay: Induction of cell cycle arrest in human AGS cells assessed as increase in P21 expression at 0.5 to 2 uM by Western blotting analysis; format: functional, cell-based; conditions: dose 0.5-2 µM
HGC-27 [28] = assay: Antitumor activity against human HGC-27 cells xenografted in male BALB/c nude mouse assessed as tumor growth suppression administered intraperitoneally every day for 15 days; format: functional, cell-based; conditions: dose 25-100 mg/kg, route ip, time 15.0 day
HGC-27 [29] = assay: Induction of apoptosis in human HGC-27 cells assessed as viable cells at 0.5 uM incubated for 48 hrs by annexin V-FITC and PI staining based flow cytometry analysis (reference value: 91.8%); format: functional; conditions: read-out: Activity
AGS [30] = assay: Induction of apoptosis in human AGS cells assessed as early apoptotic cells at 2 uM incubated for 48 hrs by annexin V-FITC and PI staining based flow cytometry analysis (reference value: 4.44%); format: functional
HGC-27 [31] = assay: Induction of apoptosis in human HGC-27 cells assessed as necrotic cells at 1 uM incubated for 48 hrs by annexin V-FITC and PI staining based flow cytometry analysis (reference value: 0.062%); format: functional
HGC-27 [32] = assay: Induction of autophagy in human HGC-27 cells assessed as increase in LC3 II/LC3 I ratio in tumor tissue at 25 to 100 mg/kg, ip administered daily; format: functional, organism-based; conditions: dose 25-100 mg/kg

CC(C)[C@]12O[C@H]1[C@@H]1O[C@]13[C@]1(O[C@H]1C[C@H]1C4=C(CC[C@@]13C)C(=S)OC4)[C@@H]2O
Activity (HGC-27 [1]): 75.34%
Activity (AGS [2]): 52.16%
Activity (AGS [3]): Active
pIC50 (SGC-7901): 5.74
Activity (HGC-27 [4]): Active
Activity (HGC-27 [5]): Active
Activity (HGC-27 [6]): 6.12%
Activity (AGS [7]): 17.2%
Activity (HGC-27 [8]): Active
pIC50 (U-251): 5.79
Activity (HGC-27 [9]): Active
Activity (AGS [10]): 17%
Activity (HGC-27 [11]): Active
pIC50 (HCT-116): 6.40
Activity (HGC-27 [12]): 19.7%
Activity [13]: Non-toxic
inhibition in vivo at 25 mg/kg (HGC-27 [14]): 63.7%
Activity (HGC-27 [15]): Active
Activity (HGC-27 [16]): Active
Activity (AGS [17]): Dose-dependent-effect
pIC50 (AGS [18]): 6.19
Activity (HGC-27 [19]): 28.1%
Activity (HGC-27 [20]): Active
Activity (HGC-27 [21]): Active
pIC50 (HGC-27 [22]): 6.48
viability at 1 µM (AGS [23]): 65.1%
Activity (AGS [24]): Active
viability at 0.5 µM (AGS [25]): 82.3%
pIC50 (BGC-823): 5.88
Activity (HGC-27 [26]): Active
Activity (AGS [27]): Active
Activity (HGC-27 [28]): Dose-dependent-effect
viability at 0.5 µM (HGC-27 [29]): 85.9%
Activity (AGS [30]): 31.6%
Activity (HGC-27 [31]): 0.11%
Activity (HGC-27 [32]): Active
